Reference: PubChem BioAssay AID463179 (Southern Research Specialized Biocontainment Screening …, 2010)
Calls of active or inactive are those of the source. The rule behind the calls is not given here.

Legend:
[1] = PhoP promoter GFP reporter, Salmonella typhi, confirmatory inhibitors, fluorescence, 4 h (AID 463179); conditions: Salmonella Typhi PhoP-promoter GFP reporter, fluorescence, 4 h; at 150 µM (top of the series)
[2] = tested on: Salmonella Typhi PhoP-promoter GFP reporter, fluorescence, 4 h; experiment: as above

Structure (SMILES) | inhibition [1] | IC50 [2] [µM]
O=C1C2=C(Nc3ccccc3SC2c2cccc(Br)c2)c2ccccc21 (centres undefined) | -12.2% (inactive) | 
Cc1ccc(C2Sc3ccccc3N=C3c4ccccc4CC32)cc1 (centres undefined) |  | 2.67
O=C1C2=C(Nc3ccccc3SC2c2ccc(Cl)cc2)c2ccccc21 (centres undefined) | 18% (inactive) | 
Clc1ccc(C2Sc3ccccc3N=C3c4ccccc4CC32)cc1 (centres undefined) |  | 6.26
